Experimental data published in US8653100B2 (AbbVie Inc., priority 2008, dated 2014).
Counter-ions that a name gives are not always drawn. Like-named read-outs stand apart in the source and are kept apart here.

Biological target: human GlyT1c transporter (Homo sapiens (Human), UniProt P48067)
Assay: Radioligand binding assay using recombinant CHO cell membranes expressing human GlyT1
Conditions: examples 88-204, radioligand not specified by footnote, read-out: radioligand binding Kiapp
Procedure: 2. Radioligand binding assays using recombinant CHO cell membranes expressing human GlyT1:
Radioligand binding to human GlyT1c transporter-expressing membranes was carried out as described in Mezler et al., Molecular Pharmacology 74:1705-1715, 2008.
More specifically, [^3H]-(R)-NPTS radioligand binding to human GlyT1c transporter-expressing membranes was measured in duplicate in a total volume of 200 μl in 96-well plates. To 100 μl of membrane suspension (yielding a final membrane protein concentration of 50 μg/ml) in assay buffer (120 mM NaCl, 2 mM KCl, 10 mM Hepes, 1 mM MgCl2, 1 mM CaCl2, pH 7.5) […] of [^3H]-(R)-NPTS (0.5 nM final) were added in assay buffer. For competition experiments 10 μl of buffer or unlabeled compound solution obtained from dilution series of test compounds in DMSO followed. An intermediate 1:10 dilution in assay buffer yielded a final DMSO concentration of 1%. Non-specific binding was determined in the presence of 10 μM Org24598 (or its racemate Org24461) for [^3H]-(R)-NPTS. After incubation at room temperature for 1 h, the incubation mixture was harvested (Tomtec Mach III U Harvester) through 96-well GF/B filter plates (PerkinElmer), presoaked for 1 h with 40 μl per well of 0.1% polyethylene-imine (PEI). After washing twice with ice-cold 50 mM Tris-HCl pH 7.4 buffer, drying and addition of 35 μl scintillator (BetaplateScint, PerkinElmer) per well followed. The radioactivity was determined by liquid scintillation spectrometry in a MicroBeta (PerkinElmer) plate counter.
Data analysis: For binding of [^3H]-(R)-NPTS to cell membranes, the calculation of Kd and Bmax values from the saturation binding assays and the IC50 values from the displacement binding was performed by iterative non-linear regression analysis adapted from the ‘Ligand’ program (Munson and Rodbard, 1980). Radioligand displacement curves in absence or in presence of increasing concentrations of tested compounds were fitted using a one-site fit and the apparent Ki values were calculated from the IC50 values using the Cheng-Prusoff equation (Cheng and Prusoff 1973).

Sequence of human GlyT1c transporter (P48067 whole entry): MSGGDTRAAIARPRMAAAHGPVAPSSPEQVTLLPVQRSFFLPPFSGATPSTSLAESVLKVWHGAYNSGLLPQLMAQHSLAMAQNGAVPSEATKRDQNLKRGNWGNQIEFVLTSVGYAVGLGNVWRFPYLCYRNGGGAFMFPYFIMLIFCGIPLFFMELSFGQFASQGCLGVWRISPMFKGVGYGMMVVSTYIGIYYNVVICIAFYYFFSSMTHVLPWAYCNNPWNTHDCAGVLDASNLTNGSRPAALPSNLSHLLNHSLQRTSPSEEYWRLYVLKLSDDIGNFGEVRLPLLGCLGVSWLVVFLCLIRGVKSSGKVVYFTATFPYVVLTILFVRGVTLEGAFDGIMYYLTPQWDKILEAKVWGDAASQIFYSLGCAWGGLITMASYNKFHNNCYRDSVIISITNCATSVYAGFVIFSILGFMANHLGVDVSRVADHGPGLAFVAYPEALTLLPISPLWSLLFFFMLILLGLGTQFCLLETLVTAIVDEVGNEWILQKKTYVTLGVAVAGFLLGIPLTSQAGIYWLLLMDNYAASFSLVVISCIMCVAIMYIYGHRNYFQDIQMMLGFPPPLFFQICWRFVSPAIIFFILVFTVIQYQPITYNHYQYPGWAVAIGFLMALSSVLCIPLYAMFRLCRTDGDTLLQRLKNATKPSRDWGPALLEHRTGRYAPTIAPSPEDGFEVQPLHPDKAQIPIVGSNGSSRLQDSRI

SMILES | Ki [µM] | Ki (hydrochloride) [µM]
CCCS(=O)(=O)Nc1ccc(Oc2ccc3c(c2)C(C2(c4ccc(Cl)cc4)CCC2)NCC3)nc1 (stereo not drawn) [Example 119, N-[6-({1-[1-(4-Chlorophenyl)cyclobutyl]-1,2,3,4-tetrahydroisoquinolin-7-yl}oxy)pyridin-3-yl]propane-1-sulfonamide dihydrochloride] | ≤ 10 | 
CCCS(=O)(=O)Oc1ccc2c(c1)C(C1(c3cccc(F)c3)CCC1)NCC2 (stereo not drawn) [Example 120, 1-[1-(3-Fluorophenyl)cyclobutyl]-1,2,3,4-tetrahydroisoquinolin-7-yl propane-1-sulfonate hydrochloride] | ≤ 10 | 
O=S(=O)(Nc1ccccc1Oc1ccc2c(c1)C(C1(c3ccc(Cl)cc3)CCC1)NCC2)c1cccnc1 (stereo not drawn) [Example 122, N-[2-({1-[1-(4-Chlorophenyl)cyclobutyl]-1,2,3,4-tetrahydroisoquinolin-7-yl}oxy)phenyl]pyridine-3-sulfonamide dihydrochloride] | ≤ 10 | 
O=S(=O)(Nc1ccc(Oc2ccc3c(c2)C(C2(c4ccc(Cl)cc4)CCC2)NCC3)nc1)c1cccs1 (stereo not drawn) [Example 124, N-[6-({1-[1-(4-Chlorophenyl)cyclobutyl]-1,2,3,4-tetrahydroisoquinolin-7-yl}oxy)pyridin-3-yl]thiophene-2-sulfonamide dihydrochloride] | ≤ 10 | 
CCCS(=O)(=O)NCc1ccc2c(c1)C(C1(c3ccccn3)CCC1)NCC2 (stereo not drawn) [Example 125, N-({1-[1-(Pyridin-2-yl)cyclobutyl]-1,2,3,4-tetrahydroisoquinolin-7-yl}methyl)propane-1-sulfonamide trifluoroacetate] | ≤ 10 | 
O=S(=O)(Nc1cccnc1Oc1ccc2c(c1)C(C1(c3ccc(Cl)cc3)CCC1)NCC2)c1cccs1 (stereo not drawn) [Example 127, N-[2-({1-[1-(4-Chlorophenyl)cyclobutyl]-1,2,3,4-tetrahydroisoquinolin-7-yl}oxy)pyridin-3-yl]thiophene-2-sulfonamide dihydrochloride] | ≤ 10 | 
CCCS(=O)(=O)Nc1cccnc1Oc1ccc2c(c1)C(C1(c3ccc(Cl)cc3)CCC1)NCC2 (stereo not drawn) [Example 128, N-[2-({1-[1-(4-Chlorophenyl)cyclobutyl]-1,2,3,4-tetrahydroisoquinolin-7-yl}oxy)pyridin-3-yl]propane-1-sulfonamide dihydrochloride] | ≤ 10 | 
N#Cc1ccc2c(c1)C(C1(c3ccccn3)CCC1)NCC2 (stereo not drawn) [Example 129, 1-[1-(Pyridin-2-yl)cyclobutyl]-1,2,3,4-tetrahydroisoquinoline-7-carbonitrile hydrochloride] | ≤ 10 | 
O=S(=O)(Nc1ccc(Oc2ccc3c(c2)C(C2(c4ccc(Cl)cc4)CCC2)NCC3)nc1)c1cccnc1 (stereo not drawn) [Example 131, N-[6-({1-[1-(4-Chlorophenyl)cyclobutyl]-1,2,3,4-tetrahydroisoquinolin-7-yl}oxy)pyridin-3-yl]pyridine-3-sulfonamide trihydrochloride] | ≤ 10 | 
O=S(=O)(CC1CC1)NCc1ccc2c(c1)C(C1(c3ccccn3)CCC1)NCC2 (stereo not drawn) [Example 134, 1-Cyclopropyl-N-({1-[1-(pyridin-2-yl)cyclobutyl]-1,2,3,4-tetrahydroisoquinolin-7-yl}methyl)methanesulfonamide trifluoroacetate] | ≤ 10 | 
O=S(=O)(Nc1cccnc1Oc1ccc2c(c1)C(C1(c3ccc(Cl)cc3)CCC1)NCC2)c1cccnc1 (stereo not drawn) [Example 136, N-[2-({1-[1-(4-Chlorophenyl)cyclobutyl]-1,2,3,4-tetrahydroisoquinolin-7-yl}oxy)pyridin-3-yl]pyridine-3-sulfonamide trihydrochloride] | ≤ 10 | 
NCCCNS(=O)(=O)CCCOc1ccc2c(c1)C(C1(c3ccc(Cl)cc3)CCC1)NCC2 (stereo not drawn) [Example 137, N-(3-Aminopropyl)-3-({1-[1-(4-chlorophenyl)cyclobutyl]-1,2,3,4-tetrahydroisoquinolin-7-yl}oxy)propane-1-sulfonamide dihydrochloride] | ≤ 10 | 
O=S(=O)(NCCOc1ccc2c(c1)[C@H](C1(c3ccc(Cl)cc3)CCC1)NCC2)c1cccnc1 [Example 141, N-[2-({(1S)-1-[1-(4-Chlorophenyl)cyclobutyl]-1,2,3,4-tetrahydroisoquinolin-7-yl}oxy)ethyl]pyridine-3-sulfonamide hydrochloride] |  | ≤ 0.1

Continued, in another order:

Ki [µM] | SMILES | Ki (hydrochloride) [µM]
≤ 0.1 | CCCS(=O)(=O)NCC(=O)Nc1ccc2c(c1)C(C1(c3ccc(Cl)cc3)CCC1)NCC2 (stereo not drawn) [Example 99, N-{1-[1-(4-Chlorophenyl)cyclobutyl]-1,2,3,4-tetrahydroisoquinolin-7-yl}-N˜2˜-(propylsulfonyl)glycinamide hydrochloride] | 
≤ 0.1 | Cn1cc(S(=O)(=O)NCc2ccc3c(c2)C(C(C)(C)c2ccc(Cl)cc2)NCC3)cn1 (stereo not drawn) [Example 100, N-({1-[2-(4-Chlorophenyl)propan-2-yl]-1,2,3,4-tetrahydroisoquinolin-7-yl}methyl)-1-methyl-1H-pyrazole-4-sulfonamide hydrochloride] | 
≤ 0.1 | Cn1cnc(S(=O)(=O)NCc2ccc3c(c2)C(C(C)(C)c2ccc(Cl)cc2)NCC3)c1 (stereo not drawn) [Example 102, N-({1-[2-(4-Chlorophenyl)propan-2-yl]-1,2,3,4-tetrahydroisoquinolin-7-yl}methyl)-1-methyl-1H-imidazole-4-sulfonamide hydrochloride] | 
≤ 0.1 | O=S(=O)(CCCF)NCCOc1ccc2c(c1)C(C1(c3ccccn3)CCC1)NCC2 (stereo not drawn) [Example 104, 3-Fluoro-N-[2-({1-[1-(pyridin-2-yl)cyclobutyl]-1,2,3,4-tetrahydroisoquinolin-7-yl}oxy)ethyl]propane-1-sulfonamide hydrochloride] | 
≤ 0.1 | CCCS(=O)(=O)NCCOc1ccc2c(c1)C(C1(c3cccc(Cl)n3)CCC1)NCC2 (stereo not drawn) [Example 105, N-[2-({1-[1-(6-Chloropyridin-2-yl)cyclobutyl]-1,2,3,4-tetrahydroisoquinolin-7-yl}oxy)ethyl]propane-1-sulfonamide dihydrochloride] | 
≤ 1 | CC(C)(c1ccc(Cl)cc1)C1NCCc2ccc(C#N)cc21 (stereo not drawn) [Example 107, 1-[2-(4-Chlorophenyl)propan-2-yl]-1,2,3,4-tetrahydroisoquinoline-7-carbonitrile hydrochloride] | 
≤ 1 | O=S(=O)(CCCOc1ccc2c(c1)C(C1(c3ccc(Cl)cc3)CCC1)NCC2)Nc1ccccn1 (stereo not drawn) [Example 109, 3-({1-[1-(4-Chlorophenyl)cyclobutyl]-1,2,3,4-tetrahydroisoquinolin-7-yl}oxy)-N-(pyridin-2-yl)propane-1-sulfonamide dihydrochloride] | 
≤ 1 | O=S(=O)(NCCOc1ccc2c(c1)C(C1(c3ccc(Cl)cc3)CCC1)NCC2)c1ccc(CCF)cc1 (stereo not drawn) [Example 110, N-[2-({1-[1-(4-Chlorophenyl)cyclobutyl]-1,2,3,4-tetrahydroisoquinolin-7-yl}oxy)ethyl]-4-(2-fluoroethyl)benzenesulfonamide hydrochloride] | 
≤ 1 | Cn1cnc(S(=O)(=O)NCC(=O)Nc2ccc3c(c2)C(C2(c4ccc(Cl)cc4)CCC2)NCC3)c1 (stereo not drawn) [Example 111, N-{1-[1-(4-Chlorophenyl)cyclobutyl]-1,2,3,4-tetrahydroisoquinolin-7-yl}-N˜2˜-[(1-methyl-1H-imidazol-4-yl)sulfonyl]glycinamide dihydrochloride] | 
≤ 1 | Cn1cc(S(=O)(=O)NCC(=O)Nc2ccc3c(c2)C(C2(c4ccc(Cl)cc4)CCC2)NCC3)cn1 (stereo not drawn) [Example 113, N-{1-[1-(4-Chlorophenyl)cyclobutyl]-1,2,3,4-tetrahydroisoquinolin-7-yl}-N˜2˜-[(1-methyl-1H-pyrazol-4-yl)sulfonyl]glycinamide hydrochloride] | 
≤ 1 | O=S(=O)(NCCOc1ccc2c(c1)C(C1(c3ccc(Cl)cc3)CCC1)NCC2)c1ccc(CCCF)cc1 (stereo not drawn) [Example 114, N-[2-({1-[1-(4-Chlorophenyl)cyclobutyl]-1,2,3,4-tetrahydroisoquinolin-7-yl}oxy)ethyl]-4-(3-fluoropropyl)benzenesulfonamide hydrochloride] | 
≤ 1 | O=S(=O)(Nc1ccc(Oc2ccc3c(c2)C(C2(c4ccc(Cl)cc4)CCC2)NCC3)cc1)c1cccs1 (stereo not drawn) [Example 115, N-[4-({1-[1-(4-Chlorophenyl)cyclobutyl]-1,2,3,4-tetrahydroisoquinolin-7-yl}oxy)phenyl]thiophene-2-sulfonamide hydrochloride] | 
≤ 0.1 | CCCS(=O)(=O)NCCOc1ccc2c(c1)C(C(C)(C)c1ccc(Cl)cc1)NCC2 (stereo not drawn) [Example 139, N-[2-({1-[2-(4-Chlorophenyl)propan-2-yl]-1,2,3,4-tetrahydroisoquinolin-7-yl}oxy)ethyl]propane-1-sulfonamide] | 
≤ 0.1 | O=S(=O)(CCCF)NCCOc1ccc2c(c1)C(C1(c3ccc(Cl)cc3)CCC1)NCC2 (stereo not drawn) [Example 140, N-[2-({1-[1-(4-Chlorophenyl)cyclobutyl]-1,2,3,4-tetrahydroisoquinolin-7-yl}oxy)ethyl]-3-fluoropropane-1-sulfonamide hydrochloride] | 
